Legend:
S. typhimurium TA98 = assay: Ames test; details: 7i 40 µg/plate
S. typhimurium TA1537 = assay: Ames test; details: 7i 40 µg/plate
S. typhimurium TA1535 = details: +S9; 7i 40 µg/plate; positive control 2-anthramine 0.5
S. typhimurium TA100 = details: +S9; 7i 40 µg/plate; positive control 2-anthramine 0.5
[1] = test system: experimental autoimmune encephalomyelitis (EAE); set-up: method as in PMID 25521311; details: BD-1047 alone; cited from earlier work
TK6 cells = details: human
Experimental: The frequency of micronucleated (MN) cells was determined out of at least 2000 mononucleated cells.

[2] = test system: dizocilpine-induced learning deficits; assay: Dizocilpine-induced learning deficits, step-through passive avoidance; assay type: in vivo, male Swiss mice; details: 3 mg/kg i.p., alone
Experimental: (§1) The activity of compound 7i was evaluated in regard to its ability to reverse dizocilpine-induced learning deficits. Two behavioral tests were performed by Amylgen (Montferrier-sur-Lez, France) on male Swiss mice (aged 6–9 weeks). All compounds (7i and controls) were intraperitoneally injected.
(§2) Animals were tested for spontaneous alternation performance in the Y-maze, an index of spatial working memory. Made of grey polyvinylchloride, the Y-maze has an arm which is 40 cm long, 13 cm high and 3 cm wide at the bottom and 10 cm wide at the top, converging at an equal angle. Each mouse was placed at the end of one arm and allowed to move freely through the maze during an 8-min session. The series of arm entries, including possible returns into the same arm, were checked visually. An alternation was defined as entries into all three arms on consecutive occasions. The number of maximum alternations was therefore the total number of arm entries minus two, and the percentage of alternation was calculated as: (actual alternations/maximum alternations) × 100. Parameters included the percentage of alternation (memory index) and the total number of arm entries (exploration index). Animals showing extreme behavior (alternation < 20% or >90% or number of arm entries < 10) are usually discarded from the calculations. […] Step-through latency (the latency in time spent to enter the dark compartment) and the number of vocalizations were recorded. […] Step-through latency was recorded up to 300 s. When either the mouse entered the dark compartment or 300 s had elapsed (they were therefore manually placed in it), escape latency (latency to exit from the dark compartment) was recorded with a value of up to 300 s. […]

S1R–BiP complex = assay: S1R-BiP dissociation assay in CHO cells (co-IP, ELISA); assay type: cell-based; details: for effect on S1R–BiP association: 10 µM, 30-min incubation
Experimental: The activity of compound 7i was evaluated in regard to its ability to dissociate the S1R–BiP complex. The S1R–BiP dissociation assay was performed by Amylgen (Montferrier-sur-Lez, France) as described in [13, 79]. Briefly, CHO cells were treated with test compounds for 30 min (37 °C). Crosslinking was performed with dithiobis succinimidyl propionate (DSP; Thermoscientific, Waltham, MA, USA). Lysis was performed after incubation for 15 min on ice. After centrifugation, supernatants were incubated overnight (4 °C) with the S1R antibody (Abcam, Cambridge, UK). Lysates were incubated with Sepharose Protein-A (Invitrogen). After the first centrifugation, the pellet was resuspended in radioimmunoprecipitation assay (RIPA) buffer. After a second centrifugation, the pellet was resuspended in 2× sample buffer/bMCE buffer. After the third centrifugation, supernatants were analyzed for BiP immunoreactivity (SEC343Mu ELISA, USCNK Life Sciences, Wuhan, China).

[3] = test system: dizocilpine-induced learning deficits; assay: Dizocilpine-induced learning deficits, Y-maze spontaneous alternation; assay type: in vivo, male Swiss mice; details: 3 mg/kg i.p., alone
Experimental: as §1, §2

QT interval = assay: ECG QT interval analysis under isoflurane anesthesia; details: for QT Interval Basal / QT Interval 3 min / QT Interval 6 min / QT Interval 10 min: in ms (unit assumed); for QT Interval 3 min: 3 min after injection; for QT Interval 6 min: 6 min after injection; for QT Interval 10 min: 10 min after injection
Experimental: Four electrodes were inserted subcutaneously in the mouse limbs. Electrical signals were recorded with a Powerlab (Ad instruments) and analyzed with LabChart Pro software (v8.1.19).
Heart rate and PR, QRS and QT intervals were measured as described in Supplementary Figure S3.

[4] = +S9, positive control 2-anthramine 0.5

## Nc1ccc2cc3ccccc3cc2c1 [2-anthramine, reference compound]
S. typhimurium TA98; [4]
  Ames TA98 +S9 (Mean revertants/well per title): 36.0
S. typhimurium TA1537; [4]
  Ames TA1537 +S9 (Mean revertants/well per title): 27.6
S. typhimurium TA1535
  Ames TA1535 +S9 (Mean revertants/well per title): 26.9
S. typhimurium TA100
  Ames TA100 +S9 (Mean revertants/well per title): 6.0

## O=[N+]([O-])c1ccc2c(c1)Cc1ccccc1-2 [2-nitrofluorene, reference compound]
S. typhimurium TA98; −S9, positive control 2-nitrofluorene 0.5
  Ames TA98 −S9 (Mean revertants/well per title): 23.1

## Nc1c2ccccc2nc2ccccc12 [9-amino-acridine, reference compound]
S. typhimurium TA1537; −S9, positive control 9-amino-acridine 1.56
  Ames TA1537 −S9 (Mean revertants/well per title): 8.4

## CN(C)CCN(C)CCc1ccc(Cl)c(Cl)c1 [BD-1047]
[1]
  effect on EAE development, alone: no significant effect

## O=P1(N(CCCl)CCCl)NCCCO1 (centres unmarked) [Cyclophosphamide]
TK6 cells
  MN/2 × 10^3 Cells: 35.5
  RS (%): 88.3%

## CCCN(CCC)CCc1ccc(OC)c(OCCc2ccccc2)c1 [NE-100, reference compound]
[2]
  effect by itself in passive avoidance: devoid of any effect
S1R–BiP complex
  effect on S1R–BiP association: no effect
[3]
  effect by itself in Y-maze: devoid of any effect

## O=C(OCCN1CCOCC1)C1(c2ccccc2)CCCCC1 [PRE-084, reference compound]
S1R–BiP complex
  effect on S1R–BiP association: significantly causes the dissociation
S1R–BiP complex; co-treatment with NE-100 (10 µM)
  effect on S1R–BiP dissociation in presence of NE-100: blocks

## C=C[C@H]1C[N@@]2CC[C@H]1C[C@@H]2[C@@H](O)c1ccnc2ccc(OC)cc12 [Quinidine, reference compound]
QT interval; 10 mg/kg and 100 mg/kg i.p., 6 to 10 min after injection
  QT interval, conclusion: dose-dependently prolonged the QT interval
QT interval; 10.0 mg/kg i.p. group
  QT Interval Basal: 46 ± 2
QT interval; 10.0 mg/kg i.p.
  QT Interval 3 min: 50 ± 2
  QT Interval 6 min: 64 ± 6
  QT Interval 10 min: 65 ± 5
QT interval; 100.0 mg/kg i.p. group
  QT Interval Basal: 47 ± 4
QT interval; 100.0 mg/kg i.p.
  QT Interval 3 min: 58 ± 3
  QT Interval 6 min: 84 ± 7
  QT Interval 10 min: 76 ± 4

— publication PMC9569529, “Safe and Efficient Sigma1 Ligand: A Potential Drug Candidate for Multiple Sclerosis” (International Journal of Molecular Sciences, 2022)
